Source: ChEMBL document CHEMBL5291721, “A preclinical secondary pharmacology resource illuminates target-adverse drug reaction associations of marketed drugs” (Nat Commun, 2023)

What was measured:
Estrogen receptor = target: T1, Estrogen receptor (Homo sapiens, UniProt P03372)
T1 sequence (P03372 whole entry): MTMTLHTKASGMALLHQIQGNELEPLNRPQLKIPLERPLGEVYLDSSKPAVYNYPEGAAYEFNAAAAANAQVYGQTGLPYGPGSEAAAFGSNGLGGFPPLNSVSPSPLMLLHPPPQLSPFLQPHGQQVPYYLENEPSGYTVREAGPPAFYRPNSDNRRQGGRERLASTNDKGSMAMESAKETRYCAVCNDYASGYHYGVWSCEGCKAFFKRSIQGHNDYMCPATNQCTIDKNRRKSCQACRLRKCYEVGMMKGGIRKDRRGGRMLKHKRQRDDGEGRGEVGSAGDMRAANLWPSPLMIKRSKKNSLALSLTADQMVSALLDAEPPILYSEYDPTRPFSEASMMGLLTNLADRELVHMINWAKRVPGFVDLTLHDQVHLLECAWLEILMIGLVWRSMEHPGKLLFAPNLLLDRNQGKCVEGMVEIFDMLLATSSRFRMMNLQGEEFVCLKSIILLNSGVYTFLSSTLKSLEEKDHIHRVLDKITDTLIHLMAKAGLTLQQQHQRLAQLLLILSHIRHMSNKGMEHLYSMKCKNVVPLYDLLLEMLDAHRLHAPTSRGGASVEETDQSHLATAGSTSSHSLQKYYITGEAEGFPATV

[1] = target: Voltage-gated inwardly rectifying potassium channel KCNH2 (Homo sapiens, UniProt Q12809); format: functional
Chain of Voltage-gated inwardly rectifying potassium channel KCNH2 (Q12809 whole entry): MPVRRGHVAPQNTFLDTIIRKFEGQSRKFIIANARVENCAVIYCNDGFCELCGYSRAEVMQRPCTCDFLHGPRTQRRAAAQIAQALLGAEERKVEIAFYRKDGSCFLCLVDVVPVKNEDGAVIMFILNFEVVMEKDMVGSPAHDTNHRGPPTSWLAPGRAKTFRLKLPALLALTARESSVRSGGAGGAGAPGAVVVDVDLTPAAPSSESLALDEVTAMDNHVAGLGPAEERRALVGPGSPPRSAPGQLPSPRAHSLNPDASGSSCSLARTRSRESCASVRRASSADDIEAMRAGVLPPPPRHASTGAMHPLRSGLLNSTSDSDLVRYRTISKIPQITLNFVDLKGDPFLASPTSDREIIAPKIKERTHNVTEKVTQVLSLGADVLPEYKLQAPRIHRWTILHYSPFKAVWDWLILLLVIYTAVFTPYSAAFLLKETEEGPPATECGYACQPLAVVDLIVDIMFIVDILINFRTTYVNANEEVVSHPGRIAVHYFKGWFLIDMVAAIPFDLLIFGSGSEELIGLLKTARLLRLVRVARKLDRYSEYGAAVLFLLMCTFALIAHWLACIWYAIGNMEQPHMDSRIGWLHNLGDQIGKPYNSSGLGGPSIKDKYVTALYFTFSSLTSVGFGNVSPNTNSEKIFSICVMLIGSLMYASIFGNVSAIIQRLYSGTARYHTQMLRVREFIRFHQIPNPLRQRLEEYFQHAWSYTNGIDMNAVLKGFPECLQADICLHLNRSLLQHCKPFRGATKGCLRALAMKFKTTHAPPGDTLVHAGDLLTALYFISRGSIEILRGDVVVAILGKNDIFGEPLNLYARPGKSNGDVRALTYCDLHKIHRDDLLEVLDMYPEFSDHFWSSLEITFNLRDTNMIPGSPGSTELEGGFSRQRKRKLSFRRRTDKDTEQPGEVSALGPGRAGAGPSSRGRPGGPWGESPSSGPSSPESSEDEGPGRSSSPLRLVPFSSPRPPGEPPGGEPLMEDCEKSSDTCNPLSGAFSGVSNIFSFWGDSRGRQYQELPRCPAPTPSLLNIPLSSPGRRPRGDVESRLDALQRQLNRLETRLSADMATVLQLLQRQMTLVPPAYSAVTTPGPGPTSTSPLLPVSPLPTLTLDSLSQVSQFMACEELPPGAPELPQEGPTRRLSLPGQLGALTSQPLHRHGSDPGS

Mu-type opioid receptor = Mu-type opioid receptor (Homo sapiens, UniProt P35372)
Chain of Mu-type opioid receptor (P35372 whole entry): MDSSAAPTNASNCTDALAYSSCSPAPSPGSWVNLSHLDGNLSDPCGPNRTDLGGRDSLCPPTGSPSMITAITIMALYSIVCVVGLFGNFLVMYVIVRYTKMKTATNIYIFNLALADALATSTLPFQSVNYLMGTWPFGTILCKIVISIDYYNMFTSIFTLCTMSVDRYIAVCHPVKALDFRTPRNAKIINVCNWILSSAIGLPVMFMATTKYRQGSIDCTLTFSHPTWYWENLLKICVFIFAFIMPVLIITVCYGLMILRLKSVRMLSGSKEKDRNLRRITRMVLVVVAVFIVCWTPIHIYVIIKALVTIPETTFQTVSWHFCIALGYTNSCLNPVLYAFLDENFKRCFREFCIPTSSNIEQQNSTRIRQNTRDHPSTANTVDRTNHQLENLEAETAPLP

[2] = target: T2, Prostaglandin G/H synthase 1 (Rattus norvegicus, UniProt Q63921); format: functional
T2 sequence (Q63921 whole entry): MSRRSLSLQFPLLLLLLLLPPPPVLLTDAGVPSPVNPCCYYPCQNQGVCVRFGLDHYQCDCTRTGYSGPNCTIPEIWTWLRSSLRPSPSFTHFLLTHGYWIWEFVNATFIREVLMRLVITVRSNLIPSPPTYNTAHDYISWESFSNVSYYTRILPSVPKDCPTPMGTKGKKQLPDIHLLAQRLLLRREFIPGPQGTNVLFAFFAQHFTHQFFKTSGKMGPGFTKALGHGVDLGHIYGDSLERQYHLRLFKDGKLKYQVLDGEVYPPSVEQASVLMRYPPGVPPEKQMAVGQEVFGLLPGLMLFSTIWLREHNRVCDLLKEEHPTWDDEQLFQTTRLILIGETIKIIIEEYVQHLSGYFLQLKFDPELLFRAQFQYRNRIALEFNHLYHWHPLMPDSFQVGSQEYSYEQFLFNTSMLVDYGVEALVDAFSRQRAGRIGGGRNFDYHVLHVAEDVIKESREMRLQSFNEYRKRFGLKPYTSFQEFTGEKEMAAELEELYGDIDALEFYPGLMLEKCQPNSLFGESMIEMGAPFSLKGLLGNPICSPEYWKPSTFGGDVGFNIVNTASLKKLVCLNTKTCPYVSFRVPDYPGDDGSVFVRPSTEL

[3] = target: Glutamate receptor ionotropic, NMDA 1 (Rattus norvegicus, UniProt P35439)
Histamine H2 receptor = Histamine H2 receptor (Homo sapiens, UniProt P25021); format: functional, cell-based
Chain of Histamine H2 receptor (P25021 whole entry): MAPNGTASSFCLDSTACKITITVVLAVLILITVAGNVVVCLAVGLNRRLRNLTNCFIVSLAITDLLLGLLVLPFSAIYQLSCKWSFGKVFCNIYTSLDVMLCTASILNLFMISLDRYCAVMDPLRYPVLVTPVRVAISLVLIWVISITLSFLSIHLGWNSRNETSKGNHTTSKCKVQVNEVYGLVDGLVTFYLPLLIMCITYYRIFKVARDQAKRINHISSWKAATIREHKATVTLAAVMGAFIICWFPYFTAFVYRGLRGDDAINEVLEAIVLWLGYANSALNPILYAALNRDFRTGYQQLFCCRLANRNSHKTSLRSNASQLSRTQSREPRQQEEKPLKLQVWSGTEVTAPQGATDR

[4] = target: T3, 5-hydroxytryptamine receptor 2C (Homo sapiens, UniProt P28335)
T3 sequence (P28335 whole entry): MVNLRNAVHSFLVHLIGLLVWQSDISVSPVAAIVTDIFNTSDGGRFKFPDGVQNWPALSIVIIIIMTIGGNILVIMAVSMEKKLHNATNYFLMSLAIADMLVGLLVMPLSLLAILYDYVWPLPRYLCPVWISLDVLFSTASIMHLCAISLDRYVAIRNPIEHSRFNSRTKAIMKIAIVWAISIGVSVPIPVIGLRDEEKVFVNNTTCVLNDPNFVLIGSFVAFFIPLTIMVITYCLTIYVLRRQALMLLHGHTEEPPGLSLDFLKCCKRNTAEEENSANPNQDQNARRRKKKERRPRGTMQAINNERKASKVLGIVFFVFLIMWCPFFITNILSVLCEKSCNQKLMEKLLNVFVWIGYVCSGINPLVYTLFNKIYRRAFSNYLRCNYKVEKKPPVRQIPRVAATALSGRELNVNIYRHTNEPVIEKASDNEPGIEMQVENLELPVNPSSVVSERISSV

Vasopressin V1a receptor = Vasopressin V1a receptor (Homo sapiens, UniProt P37288)
Chain of Vasopressin V1a receptor (P37288 whole entry): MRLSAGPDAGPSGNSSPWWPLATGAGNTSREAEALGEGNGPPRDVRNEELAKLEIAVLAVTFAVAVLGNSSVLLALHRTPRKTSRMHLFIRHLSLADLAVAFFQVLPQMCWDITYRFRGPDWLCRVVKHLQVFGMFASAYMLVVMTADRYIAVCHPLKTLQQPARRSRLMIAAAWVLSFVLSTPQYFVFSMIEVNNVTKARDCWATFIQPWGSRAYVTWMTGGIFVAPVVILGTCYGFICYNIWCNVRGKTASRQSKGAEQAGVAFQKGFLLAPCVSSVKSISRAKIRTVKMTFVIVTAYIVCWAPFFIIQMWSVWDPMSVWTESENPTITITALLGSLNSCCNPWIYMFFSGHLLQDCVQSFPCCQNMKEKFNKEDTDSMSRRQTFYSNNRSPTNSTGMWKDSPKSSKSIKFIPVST

Vasopressin V2 receptor = Vasopressin V2 receptor (Homo sapiens, UniProt P30518)
Chain of Vasopressin V2 receptor (P30518 whole entry): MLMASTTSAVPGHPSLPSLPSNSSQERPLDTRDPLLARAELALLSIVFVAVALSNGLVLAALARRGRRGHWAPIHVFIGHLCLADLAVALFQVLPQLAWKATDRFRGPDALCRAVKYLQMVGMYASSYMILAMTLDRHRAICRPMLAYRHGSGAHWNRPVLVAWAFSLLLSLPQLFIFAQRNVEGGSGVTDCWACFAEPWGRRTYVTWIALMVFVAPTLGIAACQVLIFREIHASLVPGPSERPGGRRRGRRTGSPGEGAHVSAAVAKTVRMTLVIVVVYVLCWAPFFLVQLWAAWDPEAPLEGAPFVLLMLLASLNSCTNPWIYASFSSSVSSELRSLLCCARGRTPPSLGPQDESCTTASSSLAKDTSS

[5] = target: T4, Neuropeptide Y receptor type 1 (Homo sapiens, UniProt P25929); settings: read-out: AC50
T4 sequence (P25929 whole entry): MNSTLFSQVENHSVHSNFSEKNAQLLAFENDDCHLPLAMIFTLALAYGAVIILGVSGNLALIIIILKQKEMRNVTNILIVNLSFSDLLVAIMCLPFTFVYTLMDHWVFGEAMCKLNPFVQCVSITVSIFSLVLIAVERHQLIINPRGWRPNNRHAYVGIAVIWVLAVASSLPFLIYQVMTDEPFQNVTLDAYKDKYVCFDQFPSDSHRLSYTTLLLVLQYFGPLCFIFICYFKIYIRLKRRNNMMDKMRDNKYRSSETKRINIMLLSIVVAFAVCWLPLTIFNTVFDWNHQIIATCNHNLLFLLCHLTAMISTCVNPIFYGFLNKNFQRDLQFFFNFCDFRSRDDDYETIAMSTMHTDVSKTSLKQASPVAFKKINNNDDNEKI

Thromboxane A2 receptor = target: T5, Thromboxane A2 receptor (Homo sapiens, UniProt P21731)
T5 sequence (P21731 whole entry): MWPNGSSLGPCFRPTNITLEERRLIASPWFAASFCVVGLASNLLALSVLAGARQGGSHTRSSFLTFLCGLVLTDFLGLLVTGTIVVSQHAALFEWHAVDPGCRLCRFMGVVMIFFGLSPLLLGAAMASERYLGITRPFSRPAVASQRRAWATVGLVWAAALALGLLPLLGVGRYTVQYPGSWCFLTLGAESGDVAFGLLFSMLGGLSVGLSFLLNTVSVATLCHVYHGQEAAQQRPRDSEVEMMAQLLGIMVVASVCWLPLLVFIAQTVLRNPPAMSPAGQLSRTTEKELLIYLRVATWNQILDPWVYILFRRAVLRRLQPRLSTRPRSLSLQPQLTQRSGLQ
Note: assay procedure not described here.

Row | SMILES | AC50 (Estrogen receptor) [µM] | AC50 [1] [µM] | AC50 (Mu-type opioid receptor) [µM] | AC50 [2] [µM] | AC50 [3] [µM] | AC50 (Histamine H2 receptor) [µM] | AC50 [4] [µM] | AC50 (Vasopressin V1a receptor) [µM] | AC50 (Vasopressin V2 receptor) [µM] | AC50 [5] [µM] | AC50 (Thromboxane A2 receptor) [µM]
1 | c1ccc2c(c1)CCc1ccccc1N2C1CN2CCC1CC2 (configuration not stated) [QUINUPRAMINE] | > 30 | 12 | 1.84 |  |  |  |  |  |  |  | 
2 | CC[C@@H]([C@H](C)O)n1ncn(-c2ccc(N3CCN(c4ccc(OC[C@@H]5CO[C@@](Cn6cncn6)(c6ccc(F)cc6F)C5)cc4)CC3)cc2)c1=O [POSACONAZOLE] |  | > 30 | > 30 | > 30 |  |  |  |  |  |  | 
3 | C[C@H](Cc1cc2c(c(C(N)=O)c1)N(CCCO)CC2)NCCOc1ccccc1OCC(F)(F)F [SILODOSIN] | > 30 | 12.8 | 3.34 |  |  |  |  |  |  |  | 
4 | C=CCSCC1Nc2cc(Cl)c(S(N)(=O)=O)cc2S(=O)(=O)N1 (configuration not stated) [ALTHIAZIDE] |  | > 30 | > 30 |  |  |  |  |  |  |  | 
5 | O=[N+]([O-])c1ccc(O)c2ncccc12 [NITROXOLINE] |  | 28 | > 30 |  | > 30 | > 30 | 5.5 |  |  |  | 
6 | CN(C)CCOC(c1ccccc1)c1ccc(Br)cc1 (configuration not stated) [BROMODIPHENHYDRAMINE] | > 30 |  | 17.9 |  |  |  |  |  |  |  | 
7 | CCC(=O)O[C@]1(C(=O)SCF)[C@H](C)C[C@H]2[C@@H]3C[C@H](F)C4=CC(=O)C=C[C@]4(C)[C@@]3(F)[C@@H](O)C[C@@]21C [FLUTICASONE PROPIONATE] |  | > 30 | > 30 | > 30 | > 30 | > 10 | > 30 | > 30 | > 30 | > 30 | > 30
8 | Cc1ccccc1N1CCN(CCc2nnc3n2CCCC3)CC1 [DAPIPRAZOLE] |  | > 30 | > 30 |  |  |  |  |  |  |  | 
9 | Cc1c(N(C)CS(=O)(=O)O)c(=O)n(-c2ccccc2)n1C [METAMIZOLE] |  | > 30 | > 30 |  |  |  |  |  |  |  | 
10 | CCC(=O)O[C@]1(C(=O)CCl)[C@@H](C)C[C@H]2[C@@H]3C[C@H](F)C4=CC(=O)C=C[C@]4(C)[C@@]3(F)[C@@H](O)C[C@@]21C [HALOBETASOL PROPIONATE] |  | > 30 | > 30 |  |  |  |  |  |  |  | 
11 | CC1=CCC(C(C)(C)O)CC1O (configuration not stated) [SOBREROL] | > 30 |  | > 30 |  |  |  |  |  |  |  | 
12 | C=C1CC[C@H](O)C/C1=C/C=C1\CCC[C@]2(C)[C@@H]([C@H](C)/C=C/[C@H](C)C(C)C)CC[C@@H]12 [ERGOCALCIFEROL] |  |  | > 30 |  |  |  |  |  |  |  | 
13 | COc1cc(N2CCC(N3CCN(C)CC3)CC2)ccc1Nc1ncc(Cl)c(Nc2ccccc2P(C)(C)=O)n1 [BRIGATINIB] | > 30 |  | > 30 |  |  |  |  |  |  |  | 
14 | Clc1ccc2c(N3CCN(CCCN4CCN(c5ccnc6cc(Cl)ccc56)CC4)CC3)ccnc2c1 [PIPERAQUINE] |  | 2.56 |  | > 30 | > 30 | > 30 | > 30 | > 30 | > 30 | > 30 | > 30
15 | CCOC(=O)c1cncn1[C@H](C)c1ccccc1 [ETOMIDATE] |  | > 30 |  | > 10 | > 10 | > 10 | > 30 | > 10 | > 10 | > 10 | > 10
16 | O=C(O)c1cn(C2CC2)c2cc(N3CCNCC3)c(F)cc2c1=O [CIPROFLOXACIN] | > 30 |  |  |  |  |  |  | > 10 | > 30 | > 30 | > 30
17 | CCCN[C@H]1CCc2nc(N)sc2C1 [PRAMIPEXOLE] |  | > 30 |  | > 30 | > 10 | 0.73 | > 30 | > 30 | > 30 | > 30 | > 30
18 | CCN(CCCc1ccccc1)CCCc1ccccc1 [ALVERINE] | > 30 |  | 2 |  |  |  |  |  |  |  | 
19 | CCC(=O)O[C@H]1CC[C@H]2[C@@H]3CCC4=CC(=O)CC[C@]4(C)[C@H]3CC[C@]12C [TESTOSTERONE PROPIONATE] |  | > 30 |  | > 10 | > 10 | > 10 | > 30 | > 10 | > 10 | > 10 | > 10
20 | Cc1cnc(C(=O)NCCc2ccc(S(=O)(=O)NC(=O)NC3CCCCC3)cc2)cn1 [GLIPIZIDE] | > 30 |  |  |  | > 10 | > 10 | > 30 | > 10 | > 30 | > 30 | > 30
21 | CC(N)C(O)c1ccccc1 (configuration not stated) [PHENYLPROPANOLAMINE] |  | > 30 |  | > 30 | > 10 | > 10 | > 30 | > 30 | > 30 | > 30 | > 30
22 | CCC(C)C(CC)C(N)=O (configuration not stated) [VALNOCTAMIDE] |  | > 30 |  | > 30 | > 30 | > 30 | > 30 | > 30 | > 30 | > 30 | > 30
23 | CCN(CC)C(=S)S [DITIOCARB] | > 30 |  | > 30 |  |  |  |  |  |  |  | 
24 | CC1(C)S[C@@H]2[C@H](NC(=O)[C@H](N)c3ccccc3)C(=O)N2[C@H]1C(=O)OCOC(=O)[C@@H]1N2C(=O)C[C@H]2S(=O)(=O)C1(C)C [SULTAMICILLIN] |  | > 30 |  | > 30 | > 30 | > 30 | > 30 | > 30 | > 30 | > 30 | > 30
25 | CCOC(=O)C1=C(C)NC(C)=C(C(=O)OC)C1c1cccc([N+](=O)[O-])c1 (configuration not stated) [NITRENDIPINE] |  | > 30 |  | > 30 | > 10 | > 10 | > 30 | > 30 | > 30 | > 30 | > 30
26 | COc1ccc(CN(CCN(C)C)c2ccccn2)cc1 [PYRILAMINE] |  | 9.59 | 9.05 |  |  |  |  |  |  |  | 
27 | Cc1cc(NC(=O)C2=C(O)c3ccccc3S(=O)(=O)N2C)no1 [ISOXICAM] |  | > 30 | > 30 |  |  |  |  |  |  |  | 
